Data: PMC7380166, “How to Study the Metabolism of New Psychoactive Substances for the Purpose of Toxicological Screenings—A Follow-Up Study Comparing Pooled Human Liver S9, HepaRG Cells, and Zebrafish Larvae” (Frontiers in Chemistry, 2020)

Columns and labels:
[1] = Incubations with pooled human liver S9 fraction (pHLS9), metabolite identification by LC-HRMS/MS; assay type: in vitro ADME; conditions: for Absolute peak area, pHLS9 1 h [25 μM] / Absolute peak area, pHLS9 6 h [25 μM]: 25 μM 4F-MDMB-BINACA, one replicate of n = 2, n.d. = not detected; for Absolute peak area, pHLS9 1 h [25 μM]: 1 h incubation; for Absolute peak area, pHLS9 6 h [25 μM]: 6 h incubation
Description: According to published procedures (Richter et al., [2017b], [2019b]; Caspar et al., [2018b]; Wagmann et al., [2019b],[c]), the final incubation volume per reaction tube was 150 μl, with a final protein concentration of 2 mg/ml. The given concentrations represent final concentrations. A preincubation for 10 min at 37°C with UGT reaction mixture solution B (containing alamethicin, 25 μg/ml), MgCl2 (2.5 mM), NADP^+ (0.6 mM), isocitrate (2.5 mM), isocitrate dehydrogenase (0.8 U/ml), superoxide dismutase (100 U/ml), acetyl coenzyme A (0.1 mM), phosphate buffer (90 mM, pH 7.4), and pHLS9 (2 mg/ml) was done. Afterwards, UGT reaction mixture solution A (containing UDP glucuronic acid, 2.5 mM), PAPS (40 μM), SAM (1.2 mM), dithiothreitol (1 mM), and glutathione (10 mM) were added, as well as 25 μM 4F-MDMB-BINACA to start the reactions. The mixture was incubated for 360 min. Total amount of organic solvent in incubation mixtures was <2% (Chauret et al., [1998]). After 60 min, an aliquot of the reaction mixture (60 μl) was transferred in another reaction tube containing 20 μl of ice-cold acetonitrile to terminate the reactions. The remaining aliquot (90 μl) was incubated for an additional 300 min, and then the reactions were stopped by adding 30 μl of ice-cold acetonitrile. Thereafter, the reaction tubes were cooled at −20°C for 30 min prior to centrifugation at 18,407 × g for 2 min. The supernatants (50 μl) were transferred into autosampler vials, and 1 μl was injected onto the LC-HRMS/MS system. Control samples without pHLS9 and blank samples without substrate were prepared to confirm the absence of non-metabolically formed and interfering compounds, respectively. All incubations were performed in duplicate.
According to a previous study (Richter et al., [2019a]), a Thermo Fisher Scientific (TF, Dreieich, Germany) Dionex UltiMate 3000 Rapid Separation (RS) UHPLC system with a quaternary UltiMate 3000 RS pump and an UltiMate 3000 RS autosampler controlled by the TF Chromeleon software version 6.8 was used. The LC system was coupled to an Orbitrap-based TF Q-Exactive Plus equipped with a heated electrospray ionization II (HESI-II) source. Calibration was done prior to analysis with a Positive Cal Mix (Supelco, Bellefonte, PA, USA) at a flow rate of 3 μl/min using a syringe pump. The conditions of the LC system were as follows: TF Accucore PhenylHexyl column (100 × 2.1 mm, 2.6 μm particle size); gradient elution with 2 mM ammonium formate solution containing 0.1% (v/v) formic acid (eluent A) and 2 mM ammonium formate solution in acetonitrile/methanol (50:50, v/v) containing 0.1% (v/v) formic acid, and 1% (v/v) water (eluent B). […] The following gradient was used: 0–1.0 min hold 1% B, 1–10 min to 99% B, 10–11.5 min hold 99% B, 11.5–13.5 min hold 1% B. The HESI-II source conditions were as follows: ionization mode, positive; heater temperature, 320°C; ion transfer capillary temperature, 320°C; sheath gas, 60 arbitrary units (AU); auxiliary gas, 10 AU; spray voltage, 4.00 kV; and S-lens RF level, 50.0. Mass spectrometry experiments were performed using high-resolution (HR) full scan mode and a targeted MS^2 mode with an inclusion list for each NPS. The inclusion list contained m/z values of metabolites, which were likely to be formed for example hydroxy, oxo, carboxy, dealkyl, demethylenylated, and defluorinated metabolites (phase I) as well as sulfates and glucuronides (phase II) and combinations of them. Full scan settings were as follows: resolution, 35,000; automatic gain control (AGC) target, 3e6; maximum injection time (IT), 120 ms; scan ranges, 3,4-DMA-NBOMe m/z 100–700, ephylone m/z 200–600, 4F-MDMB-BINACA m/z 150–700, 4F-PHP m/z 200–600, and 1P-LSD m/z 250–700. The settings for the targeted MS^2 mode with the respective inclusion lists were as follows: resolution, 17,500; AGC target, 2e5; maximum IT, 250 ms; loop count, 5; isolation window, 1.0 m/z; stepped normalized collision energy (NCE), 17.5, 35, 52.5%; pick others, enabled. […]

[2] = test system: HepaRG cells; assay: Incubations with HepaRG cells, metabolite identification by LC-HRMS/MS; assay type: in vitro ADME, human; conditions: for Absolute peak area, HepaRG [250 μM]: 250 μM parent NPS; for Absolute peak area, HepaRG [250 μM] / Absolute peak area, HepaRG [25 μM]: cell culture medium, one replicate of n = 3, n.d. = not detected; for Absolute peak area, HepaRG [25 μM]: 25 μM parent NPS
[3] = molecular target: T1, CYP2E1 (Homo sapiens, UniProt P05181); assay: Monooxygenases activity screening, CYP2E1; assay type: in vitro ADME; parameters: key: +, detected; –: −, not detected; conditions: 25 μM 4F-MDMB-BINACA, 50 pmol/ml enzyme, 30 min, 37°C, duplicate
T1 construct: purchased Corning; host or cells: baculovirus-transfected insect cell microsomes (Supersomes)
Description: (§1) According to an established protocol (Wagmann et al., [2016]), the final volume per reaction tube was 50 μl with a final 4F-MDMB-BINACA concentration of 25 μM and enzyme concentrations of 50 pmol/ml for CYP1A2, CYP2A6, CYP2B6, CYP2C8, CYP2C9, CYP2C19, CYP2D6, CYP2E1, CYP3A4, and CYP3A5, respectively, or 0.25 mg protein/ml for FMO3. Furthermore, the reaction mixture contained 90 mM phosphate buffer (pH 7.4), superoxide dismutase (200 U/ml), isocitrate (5 mM), MgCl2 (5 mM), isocitrate dehydrogenase (0.5 U/ml), and NADP^+ (1.2 mM). The phosphate buffer was replaced with Tris buffer (90 mM) for incubations with CYP2A6 and CYP2C9 according to the manufacturer's recommendation. All incubations were performed at 37°C for 30 min and terminated by adding 50 μl of ice-cold acetonitrile. Afterwards, the mixtures were centrifuged at 18,407 × g for 5 min, 70 μl of the supernatants was transferred into autosampler vials, and 1 μl was injected onto the LC-HRMS/MS system. Positive control incubations were performed with pHLM (1 mg microsomal protein/ml), and negative controls without enzyme were prepared to identify non-metabolically formed compounds. All incubations were done in duplicate.

[4] = molecular target: T2, CYP2C19 (Homo sapiens, UniProt P33261); assay: Monooxygenases activity screening, CYP2C19; assay type: in vitro ADME; parameters: key: +, detected; –: −, not detected; conditions: 25 μM 4F-MDMB-BINACA, 50 pmol/ml enzyme, 30 min, 37°C, duplicate
T2 construct: purchased Corning; host or cells: baculovirus-transfected insect cell microsomes (Supersomes)
Description: as §1

[5] = plasma, human data for ephylone and 4F-PHP from Wagmann et al., [2019b]
[6] = urine, human data for ephylone and 4F-PHP from Wagmann et al., [2019b]

T2 sequence (P33261 whole entry): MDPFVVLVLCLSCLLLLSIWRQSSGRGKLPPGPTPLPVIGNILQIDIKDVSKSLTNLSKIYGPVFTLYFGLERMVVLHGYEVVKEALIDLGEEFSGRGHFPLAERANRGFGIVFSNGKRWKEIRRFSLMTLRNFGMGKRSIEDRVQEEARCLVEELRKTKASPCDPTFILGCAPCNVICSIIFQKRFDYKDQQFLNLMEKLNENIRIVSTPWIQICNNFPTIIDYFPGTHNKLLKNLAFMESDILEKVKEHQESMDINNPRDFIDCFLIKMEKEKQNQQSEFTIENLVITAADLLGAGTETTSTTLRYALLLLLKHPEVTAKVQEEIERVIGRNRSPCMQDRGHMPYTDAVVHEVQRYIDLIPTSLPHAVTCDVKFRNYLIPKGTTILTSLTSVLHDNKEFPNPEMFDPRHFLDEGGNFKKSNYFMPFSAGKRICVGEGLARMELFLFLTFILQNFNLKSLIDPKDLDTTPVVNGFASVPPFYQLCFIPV
T1 sequence (P05181 whole entry): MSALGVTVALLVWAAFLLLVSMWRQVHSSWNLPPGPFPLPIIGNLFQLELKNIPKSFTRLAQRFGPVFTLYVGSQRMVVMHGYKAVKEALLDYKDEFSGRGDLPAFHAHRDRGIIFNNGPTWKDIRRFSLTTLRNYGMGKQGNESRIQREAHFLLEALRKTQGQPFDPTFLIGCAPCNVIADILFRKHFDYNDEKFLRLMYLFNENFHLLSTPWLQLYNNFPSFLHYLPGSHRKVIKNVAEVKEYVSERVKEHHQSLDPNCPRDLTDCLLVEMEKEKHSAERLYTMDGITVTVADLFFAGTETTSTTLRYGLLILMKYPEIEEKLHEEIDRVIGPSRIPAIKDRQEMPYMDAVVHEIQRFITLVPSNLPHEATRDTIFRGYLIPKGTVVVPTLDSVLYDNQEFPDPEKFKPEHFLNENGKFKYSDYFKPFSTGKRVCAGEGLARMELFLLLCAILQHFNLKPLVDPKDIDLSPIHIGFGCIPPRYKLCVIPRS

COC(=O)[C@@H](NC(=O)c1n[nH]c2ccccc12)C(C)(C)C [MB4]
Absolute peak area, pHLS9 1 h [25 μM] [1]: 5.62E+06 | Absolute peak area, pHLS9 6 h [25 μM] [1]: 2.82E+05 | Absolute peak area, HepaRG [250 μM] ([2]; 24 h): 9.55E+06 | Detection of metabolite in incubation with CYP2E1 [3]: – | Detection of metabolite in incubation with CYP2C19 [4]: +

COC(=O)[C@@H](NC(=O)c1nn(CCCCO)c2ccccc12)C(C)(C)C [MB11]
Absolute peak area, pHLS9 1 h [25 μM] [1]: 4.27E+06 | Absolute peak area, pHLS9 6 h [25 μM] [1]: 3.89E+05 | Absolute peak area, HepaRG [25 μM] ([2]; 24 h): 9.30E+04 | Absolute peak area, HepaRG [250 μM] ([2]; 24 h): 6.93E+06 | Detection of metabolite in incubation with CYP2E1 [3]: – | Detection of metabolite in incubation with CYP2C19 [4]: –

COC(=O)[C@@H](NC(=O)c1nn(CCCCF)c2ccccc12)C(C)(C)CO [MB16]
Absolute peak area, pHLS9 1 h [25 μM] [1]: 1.70E+05 | Detection of metabolite in incubation with CYP2E1 [3]: – | Detection of metabolite in incubation with CYP2C19 [4]: –

COC(=O)C(NC(=O)c1nn(CCCCF)c2ccccc12)C(C)(C)C (stereo not drawn) [4F-MDMB-BINACA, methyl 2-[1-(4-fluorobutyl)-1H-indazole-3-carbonyl]amino-3,3-dimethylbutanoate]
Number of phase I metabolites detected, pHLS9 [25 μM] ([1]; 25 μM): 15 | Absolute peak area, pHLS9 1 h [25 μM] [1]: 9.37E+08 | Absolute peak area, pHLS9 6 h [25 μM] [1]: 2.17E+08 | Relative number of matches with the four most abundant signals in human plasma, pHLS9 [25 μM] [1, 5]: 100% | Relative number of matches with the four most abundant signals in human urine, pHLS9 [25 μM] [1, 6]: 75% | Absolute peak area, HepaRG [25 μM] ([2]; 24 h): 1.28E+08 | Number of phase I metabolites detected, HepaRG [25 μM] ([2]; 25 μM, 24 h): 7 | Number of phase II metabolites detected, HepaRG [25 μM] ([2]; 25 μM, 24 h): 2 | Absolute peak area, HepaRG [250 μM] ([2]; 24 h): 5.18E+08 | Number of phase I metabolites detected, HepaRG [250 μM] ([2]; 250 μM, 24 h): 12 | Number of phase II metabolites detected, HepaRG [250 μM] ([2]; 250 μM, 24 h): 3 | Relative number of matches with the four most abundant signals in human plasma, HepaRG [25 μM] [2, 5]: 50% | Relative number of matches with the four most abundant signals in human plasma, HepaRG [250 μM] [2, 5]: 75% | Relative number of matches with the four most abundant signals in human urine, HepaRG [25 μM] [2, 6]: 50% | Relative number of matches with the four most abundant signals in human urine, HepaRG [250 μM] [2, 6]: 100%

CC(C)(C)C(NC(=O)c1nn(CCCCF)c2ccccc12)C(=O)O (stereo not drawn) [MB8]
Absolute peak area, pHLS9 1 h [25 μM] [1]: 1.01E+08 | Absolute peak area, pHLS9 6 h [25 μM] [1]: 2.77E+08 | Absolute peak area, HepaRG [25 μM] ([2]; 24 h): 5.16E+07 | Absolute peak area, HepaRG [250 μM] ([2]; 24 h): 1.63E+09 | Detection of metabolite in incubation with CYP2E1 [3]: – | Detection of metabolite in incubation with CYP2C19 [4]: –

O=C(O)c1nn(CCCCF)c2ccccc12 [MB1]
Absolute peak area, HepaRG [25 μM] ([2]; 24 h): 3.34E+04 | Absolute peak area, HepaRG [250 μM] ([2]; 24 h): 3.82E+06 | Detection of metabolite in incubation with CYP2E1 [3]: – | Detection of metabolite in incubation with CYP2C19 [4]: –
